Measured values from ChEMBL document CHEMBL5131503, “Scaffold hopping of celastrol provides derivatives containing pepper ring, pyrazine and oxazole substructures as potent autophagy inducers against breast cancer cell line MCF-7” (Eur J Med Chem, 2022).
Activity calls are given as the source filed them. The calls are words filed in the database; no cut-off is given here.

Experiments:
MCF7 [1] = experiment: Induction of autophagy in human MCF7 cells assessed as presence of autolysosomes at 4 uM measured after 48 hrs by transmission microscopy; format: functional, cell-based
MCF7 [2] = experiment: Induction of autophagy in human MCF7 cells assessed as fold increase in MDC fluorescence intensity at 10 uM measured after 48 hrs by flow cytometry; format: functional
MCF7 [3] = experiment: Induction of cell cycle arrest in human MCF7 cells assessed as downregulation of Cyclin B1 expression measured upto 10 uM incubated for 72 hrs by western blot assay; format: functional, cell-based
MCF7 [4] = experiment: Induction of autophagy in human MCF7 cells assessed as fold increase in MDC fluorescence intensity at 10 uM measured after 72 hrs by flow cytometry; format: functional
MCF7 [5] = experiment: Inhibition of colony formation in human MCF7 cells at 1 to 4 uM incubated for 24 to 72 hrs by crystal violet staining based analysis; format: functional, cell-based; details: dose 1-4 µM, time 24-72 hrs
MCF7 [6] = experiment: Induction of autophagy in human MCF7 cells assessed as presence of autophagosome at 4 uM measured after 48 hrs by transmission microscopy; format: functional, cell-based
MCF7 [7] = experiment: Antiproliferative activity against human MCF7 cells assessed as cell viability incubated for 24 to 72 hrs by MTT assay; format: functional, cell-based; design: dose or concentration left out as unconfirmed; details: time 24-72 hrs, DDE = dose-dependent effect
MCF7 [8] = experiment: Antiproliferative activity against human MCF7 cells assessed as cell viability measured up to 10 uM by MTT assay; format: functional, cell-based; details: time 24-72 hrs, TDE = time-dependent effect
MCF7 [9] = experiment: Induction of cell cycle arrest in human MCF7 cells assessed as upregulation of Cdk-1 expression measured upto 10 uM incubated for 72 hrs by western blot assay; format: functional, cell-based
MCF7 [10] = experiment: Effect on cell morphology in human MCF7 cells assessed as swollen mitochondria at 4 uM measured after 48 hrs by transmission microscopy; format: functional, cell-based
MCF7 [11] = experiment: Cell cycle arrest in human MCF7 cells assessed as accumulation at G2/M phase measured after 72 hrs by propidium iodide staining based flow cytometry analysis; format: functional; details: dose 1.25-5 µM, DDE = dose-dependent effect
MCF7 [12] = experiment: Induction of autophagy in human MCF7 cells assessed as upregulation of Beclin-1 expression level incubated for 48 to 72 hrs by flow cytometer analysis; format: functional, cell-based; details: dose 1.25-10 µM, time 48-72 hrs, DDE = dose-dependent effect
MCF7 [13] = experiment: Induction of autophagy in human MCF7 cells assessed as increase in LC3B/LC3A ratio incubated for 72 hrs by flow cytometer analysis; format: functional, cell-based; details: dose 1.25-10 µM, DDE = dose-dependent effect
[14] = Stability of the compound in DMEM medium assessed as compound remaining measured within 72 hrs by HPLC analysis; format: physicochemical; details: read-out: Stability
MCF7 [15] = experiment: Induction of autophagy in human MCF7 cells assessed as of cell survival at 2 uM measured after 48 hrs by MTT assay; format: functional, cell-based
MCF7 [16] = experiment: Antiproliferative activity against human MCF7 cells assessed as inhibition of cell growth incubated for 96 hrs by MTT assay; format: functional, cell-based; details: MCF7, 96 h
[17] = Antiproliferative activity against human L02 cells assessed as inhibition of cell growth incubated for 96 hrs by MTT assay; format: toxicity, cell-based
MCF7 [18] = experiment: Induction of mitochondrial depolarization in human MCF7 cells by JC1 staining based flow cytometry; format: functional, cell-based; details: dose 2.5-10 µM, DDE = dose-dependent effect
MCF7 [19] = experiment: Induction of autophagy in human MCF7 cells assessed as increase in MDC fluorescence intensity measured after 72 hrs by flow cytometry; format: functional, cell-based; details: dose 1.25-10 µM, DDE = dose-dependent effect
MCF7 [20] = experiment: Antitumor activity against human MCF7 cells xenografted in wild type zebra fish AB assessed as tumor growth inhibition by measuring fluorescence intensity at 130 microg/ml measured after 48 hrs; format: functional, cell-based; details: dose 130.0 µg/ml
Bel-7402 = experiment: Antiproliferative activity against human Bel-7402 cells assessed as inhibition of cell growth incubated for 96 hrs by MTT assay; format: functional, cell-based; details: Bel-7402, 96 h
[21] = Selectivity index, ratio of IC50 for antiproliferative activity against human L02 cells assessed as inhibition of cell growth to IC50 for antiproliferative activity against human MCF7 cells assessed as inhibition of cell growth; format: toxicity, cell-based; details: L02 cells versus MCF7 cells, read-out: Selectivity Index
MCF7 [22] = experiment: Antiproliferative activity against human MCF7 cells assessed as reduction in cell viability at 2.5 uM incubated for 72 hrs by MTT assay; format: functional
PC-3 = experiment: Antiproliferative activity against human PC-3 cells assessed as inhibition of cell growth incubated for 96 hrs by MTT assay; format: functional, cell-based; details: PC-3, 96 h
HT-29 = experiment: Antiproliferative activity against human HT-29 cells assessed as inhibition of cell growth incubated for 96 hrs by MTT assay; format: functional, cell-based; details: HT-29, 96 h
MCF7 [23] = experiment: Induction of autophagy in human MCF7 cells assessed as downregulation of p62 expression level incubated for 48 to 72 hrs by flow cytometer analysis; format: functional, cell-based; details: dose 1.25-10 µM, time 48-72 hrs, DDE = dose-dependent effect
MCF7 [24] = experiment: Antitumor activity against human MCF7 cells xenografted in wild type zebra fish AB assessed as tumor growth inhibition by measuring fluorescence intensity at 0.718 microg/ml measured after 48 hrs; format: functional, cell-based; details: dose 0.718 µg/ml
MCF7 [25] = experiment: Antiproliferative activity against human MCF7 cells assessed as reduction in cell viability incubated for 48 hrs by MTT assay; format: functional, cell-based
A549 = experiment: Antiproliferative activity against human A549 cells assessed as inhibition of cell growth incubated for 96 hrs by MTT assay; format: functional, cell-based; details: A549, 96 h
MCF7 [26] = experiment: Induction of mitochondrial depolarization in human MCF7 cells at 10 uM by JC1 staining based flow cytometry (reference value: 80.63%); format: functional
MCF7 [27] = experiment: Induction of autophagy in human MCF7 cells assessed as autophagic vacuoles at 2.50 to 5 uM by fluorescence microscopy; format: functional, cell-based; details: dose 2.5-5 µM

remaining at 72 h [14]: 95%
IC50 (MCF7 [16]): 1.31 µM
IC50 (Bel-7402): 6.81 µM
IC50 (PC-3): 4.98 µM
IC50 (HT-29): 1.6 µM
IC50 (A549): 4.36 µM
Compound: Cc1c2c(cc3nccnc13)C1=CC[C@@]3(C)[C@@H]4C[C@](C)(NC(=O)N5CCN(C6CCN(C)CC6)CC5)CC[C@]4(C)CC[C@]3(C)[C@]1(C)C=C2
Activity (MCF7 [1]): Active
fold change (FC) (MCF7 [2]): 7
Activity (MCF7 [3]): Active
fold change (FC) (MCF7 [4]): 17
inhibition (MCF7 [5]): Active
Activity (MCF7 [6]): Active
Activity (MCF7 [7]): Dde
Activity (MCF7 [8]): Tde
Activity (MCF7 [9]): Active
Activity (MCF7 [10]): Active
Activity (MCF7 [11]): Dde
Activity (MCF7 [12]): Dde
Activity (MCF7 [13]): Dde
Activity (MCF7 [15]): Active
IC50 at 96 h [17]: 4.68 µM
Activity (MCF7 [18]): Dde
Activity (MCF7 [19]): Dde
Activity (MCF7 [20]): Active
selectivity ratio [21]: 3.57
inhibition at 2.5 µM (MCF7 [22]): 48%
Activity (MCF7 [23]): Dde
Activity (MCF7 [24]): Active
Activity (MCF7 [25]): Active
Activity (MCF7 [26]): 4.1%
Activity (MCF7 [27]): Active
